ChEMBL document CHEMBL1201862, “PubChem BioAssay data set” (2004)
Calls of active or inactive are those of the source.

Key:
Format in all cases: functional
[1] = molecular target: Dual specificity protein kinase CLK2 (Homo sapiens, UniProt P49760)
[2] = molecular target: Cyclin-dependent kinase 7 (Homo sapiens, UniProt P50613);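 also: value comes from a kinome-wide kinase profiling panel in which CDK7 is one member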
[3] = molecular target: ALK tyrosine kinase receptor (Homo sapiens, UniProt Q9UM73);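 also: ALK tested as one member of a kinase panel screen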
[4] = molecular target: Inhibitor of nuclear factor kappa-B kinase subunit epsilon (Homo sapiens, UniProt Q14164); test: Navigating the Kinome. Panel member name: IKBKE
Activated CDC42 kinase 1 = Activated CDC42 kinase 1 (Homo sapiens, UniProt Q07912); test: Navigating the Kinome. Panel member name: ACK1
[5] = molecular target: Fibroblast growth factor receptor 1 (Homo sapiens, UniProt P11362)
[6] = molecular target: cAMP-dependent protein kinase catalytic subunit PRKX (Homo sapiens, UniProt P51817)
[7] = molecular target: Tyrosine-protein kinase receptor TYRO3 (Homo sapiens, UniProt Q06418);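 also: TYRO3 value obtained as one member of a kinome-wide profiling panel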
[8] = molecular target: Serine/threonine-protein kinase Chk1 (Homo sapiens, UniProt O14757);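 also: measured as one member of a kinome-wide kinase profiling panel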
[9] = molecular target: Vascular endothelial growth factor receptor 2 (Homo sapiens, UniProt P35968)
[10] = molecular target: Tyrosine-protein kinase Lck (Homo sapiens, UniProt P06239);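 also: lck was assayed as one member of a kinase panel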
[11] = molecular target: Tyrosine-protein kinase Fyn (Homo sapiens, UniProt P06241)
[12] = molecular target: BDNF/NT-3 growth factors receptor (Homo sapiens, UniProt Q16620);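 also: NTRK2 measured as one member of a broad kinome-wide kinase profiling panel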
[13] = molecular target: Tyrosine-protein kinase ABL1 (Homo sapiens, UniProt P00519)
[14] = molecular target: Serine/threonine-protein kinase D3 (Homo sapiens, UniProt O94806);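 also: determined within a kinase panel screen, with PRKCN as the panel member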
[15] = molecular target: Glycogen synthase kinase-3 beta (Homo sapiens, UniProt P49841);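 also: value comes from a broad kinome profiling panel, with GSK3B as the panel member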
[16] = molecular target: Dual specificity mitogen-activated protein kinase kinase 2 (Homo sapiens, UniProt P36507); test: Navigating the Kinome. Panel member name: MAP2K2
[17] = molecular target: 5'-AMP-activated protein kinase catalytic subunit alpha-1 (Homo sapiens, UniProt Q13131)
LIM domain kinase 1 = LIM domain kinase 1 (Homo sapiens, UniProt P53667); test: Navigating the Kinome. Panel member name: LIMK1
Activin receptor type-1 = Activin receptor type-1 (Homo sapiens, UniProt Q04771); test: Navigating the Kinome. Panel member name: ACVR1
[18] = molecular target: Macrophage-stimulating protein receptor (Homo sapiens, UniProt Q04912); test: Navigating the Kinome. Panel member name: MST1R
[19] = molecular target: Leukocyte tyrosine kinase receptor (Homo sapiens, UniProt P29376); test: Navigating the Kinome. Panel member name: LTK
[20] = molecular target: Glycogen synthase kinase-3 alpha (Homo sapiens, UniProt P49840);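 also: GSK3A result taken from a broad kinome-wide kinase panel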
[21] = molecular target: Platelet-derived growth factor receptor beta (Homo sapiens, UniProt P09619);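 also: value comes from a kinome panel, with PDGFRB tested as one panel member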
[22] = molecular target: Mitogen-activated protein kinase kinase kinase kinase 4 (Homo sapiens, UniProt O95819)
[23] = molecular target: Protein kinase C theta type (Homo sapiens, UniProt Q04759); test: Navigating the Kinome. Panel member name: PRKCQ
[24] = molecular target: Vascular endothelial growth factor receptor 1 (Homo sapiens, UniProt P17948);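 also: measured within a kinome-wide profiling panel, FLT1 as the panel member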
[25] = molecular target: Dual specificity mitogen-activated protein kinase kinase 1 (Homo sapiens, UniProt Q02750); test: Navigating the Kinome. Panel member name: MAP2K1
[26] = molecular target: Tyrosine-protein kinase BTK (Homo sapiens, UniProt Q06187)
[27] = molecular target: Serine/threonine-protein kinase PAK 4 (Homo sapiens, UniProt O96013);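 also: value obtained within a kinome profiling panel in which PAK4 was one of the panel members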
[28] = molecular target: Cyclin-dependent kinase 8 (Homo sapiens, UniProt P49336); test: Navigating the Kinome. Panel member name: CDK8
[29] = molecular target: Tyrosine-protein kinase JAK3 (Homo sapiens, UniProt P52333)
[30] = molecular target: Dual specificity protein kinase CLK4 (Homo sapiens, UniProt Q9HAZ1)
[31] = molecular target: Casein kinase I isoform alpha (Homo sapiens, UniProt P48729)
[32] = molecular target: Insulin-like growth factor 1 receptor (Homo sapiens, UniProt P08069); test: Navigating the Kinome. Panel member name: IGF1R
[33] = molecular target: Dual specificity tyrosine-phosphorylation-regulated kinase 1A (Homo sapiens, UniProt Q13627);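 also: measured against DYRK1A as one member of a broad kinome profiling panel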
[34] = molecular target: Mitogen-activated protein kinase kinase kinase kinase 2 (Homo sapiens, UniProt Q12851);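 also: measured as one member of a kinome-wide kinase panel, with MAP4K2 as the panel entry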
[35] = molecular target: Mitogen-activated protein kinase 8 (Homo sapiens, UniProt P45983);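 also: value comes from one member of a kinome-wide kinase profiling panel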
[36] = molecular target: Dual specificity tyrosine-phosphorylation-regulated kinase 1B (Homo sapiens, UniProt Q9Y463); test: Navigating the Kinome. Panel member name: DYRK1B
[37] = molecular target: Macrophage colony-stimulating factor 1 receptor (Homo sapiens, UniProt P07333);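 also: value comes from the Navigating the Kinome screening panel, CSF1R member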
[38] = molecular target: Serine/threonine-protein kinase TBK1 (Homo sapiens, UniProt Q9UHD2); test: Navigating the Kinome. Panel member name: TBK1
[39] = molecular target: Mitogen-activated protein kinase 9 (Homo sapiens, UniProt P45984);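 also: value from a kinome panel profiling assay, MAPK9 panel entry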
[40] = molecular target: Death-associated protein kinase 3 (Homo sapiens, UniProt O43293);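 also: measured as one member of a kinome-wide profiling panel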
[41] = molecular target: Receptor-type tyrosine-protein kinase FLT3 (Homo sapiens, UniProt P36888);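 also: FLT3 was tested as one member of a kinome-wide kinase panel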
[42] = molecular target: Platelet-derived growth factor receptor alpha (Homo sapiens, UniProt P16234); test: Navigating the Kinome. Panel member name: PDGFRA
Focal adhesion kinase 1 = Focal adhesion kinase 1 (Homo sapiens, UniProt Q05397);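 also: measured as one member of a kinome panel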
[43] = molecular target: Serine/threonine-protein kinase pim-1 (Homo sapiens, UniProt P11309)
[44] = molecular target: Tyrosine-protein kinase JAK2 (Homo sapiens, UniProt O60674);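 also: JAK2 tested as one member of a kinase panel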
[45] = molecular target: Rho-associated protein kinase 1 (Homo sapiens, UniProt Q13464);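 also: measured within a broad kinome-wide panel profiling many kinases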
Aurora kinase A = Aurora kinase A (Homo sapiens, UniProt O14965);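 also: value from the Navigating the Kinome kinase panel profiling, panel entry STK6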
[46] = molecular target: Calcium/calmodulin-dependent protein kinase type II subunit alpha (Homo sapiens, UniProt Q9UQM7); test: Navigating the Kinome. Panel member name: CAMK2A
[47] = molecular target: High affinity nerve growth factor receptor (Homo sapiens, UniProt P04629);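 also: NTRK1 tested as one member of a kinome-wide profiling panel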
[48] = molecular target: Ribosomal protein S6 kinase alpha-3 (Homo sapiens, UniProt P51812);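 also: measured within a kinome-wide profiling panel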
Aurora kinase B = Aurora kinase B (Homo sapiens, UniProt Q96GD4)
[49] = molecular target: cAMP-dependent protein kinase catalytic subunit alpha (Homo sapiens, UniProt P17612)
[50] = molecular target: Serine/threonine-protein kinase TAO1 (Homo sapiens, UniProt Q7L7X3)
[51] = molecular target: Leucine-rich repeat serine/threonine-protein kinase 2 (Homo sapiens, UniProt Q5S007);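 also: value from a broad kinome-wide panel profiling study in which LRRK2 was one of the kinases tested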
[52] = molecular target: Cyclin-dependent kinase 9 (Homo sapiens, UniProt P50750);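 also: value from the CDK9 entry of a kinome-spanning kinase panel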
[53] = molecular target: Serine/threonine-protein kinase Nek2 (Homo sapiens, UniProt P51955)

Chain of Dual specificity mitogen-activated protein kinase kinase 1 (Q02750 whole entry): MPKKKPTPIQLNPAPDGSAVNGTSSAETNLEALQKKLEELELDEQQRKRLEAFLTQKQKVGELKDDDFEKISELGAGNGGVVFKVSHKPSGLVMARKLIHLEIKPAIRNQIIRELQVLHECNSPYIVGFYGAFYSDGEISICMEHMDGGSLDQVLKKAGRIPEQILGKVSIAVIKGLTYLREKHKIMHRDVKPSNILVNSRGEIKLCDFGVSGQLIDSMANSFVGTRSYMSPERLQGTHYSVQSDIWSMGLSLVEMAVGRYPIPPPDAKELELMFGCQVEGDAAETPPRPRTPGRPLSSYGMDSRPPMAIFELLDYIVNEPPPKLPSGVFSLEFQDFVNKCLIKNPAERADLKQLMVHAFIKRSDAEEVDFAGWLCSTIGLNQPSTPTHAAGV
Chain of Serine/threonine-protein kinase D3 (O94806 whole entry): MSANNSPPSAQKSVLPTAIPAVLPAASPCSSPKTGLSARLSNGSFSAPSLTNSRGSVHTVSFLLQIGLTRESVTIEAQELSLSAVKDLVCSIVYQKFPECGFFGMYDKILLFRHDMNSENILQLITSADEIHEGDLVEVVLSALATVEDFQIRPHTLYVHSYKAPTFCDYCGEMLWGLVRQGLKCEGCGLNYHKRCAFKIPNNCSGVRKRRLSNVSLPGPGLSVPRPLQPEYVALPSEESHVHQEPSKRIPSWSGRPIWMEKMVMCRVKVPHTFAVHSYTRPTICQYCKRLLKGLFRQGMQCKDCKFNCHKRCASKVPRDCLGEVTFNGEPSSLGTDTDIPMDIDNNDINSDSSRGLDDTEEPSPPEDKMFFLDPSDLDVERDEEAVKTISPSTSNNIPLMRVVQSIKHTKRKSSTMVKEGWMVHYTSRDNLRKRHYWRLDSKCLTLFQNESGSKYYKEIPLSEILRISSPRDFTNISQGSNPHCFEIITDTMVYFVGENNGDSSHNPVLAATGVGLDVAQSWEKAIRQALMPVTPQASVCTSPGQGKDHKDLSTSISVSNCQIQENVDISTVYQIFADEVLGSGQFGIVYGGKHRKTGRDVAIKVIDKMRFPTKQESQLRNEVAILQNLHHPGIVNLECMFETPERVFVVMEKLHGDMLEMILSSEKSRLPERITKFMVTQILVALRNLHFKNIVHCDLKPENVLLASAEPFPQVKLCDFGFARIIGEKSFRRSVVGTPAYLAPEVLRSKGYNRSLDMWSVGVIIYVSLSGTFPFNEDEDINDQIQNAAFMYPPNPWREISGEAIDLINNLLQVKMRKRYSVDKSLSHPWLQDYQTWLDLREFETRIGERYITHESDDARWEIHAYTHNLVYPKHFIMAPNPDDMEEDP
Chain of Cyclin-dependent kinase 9 (P50750 whole entry): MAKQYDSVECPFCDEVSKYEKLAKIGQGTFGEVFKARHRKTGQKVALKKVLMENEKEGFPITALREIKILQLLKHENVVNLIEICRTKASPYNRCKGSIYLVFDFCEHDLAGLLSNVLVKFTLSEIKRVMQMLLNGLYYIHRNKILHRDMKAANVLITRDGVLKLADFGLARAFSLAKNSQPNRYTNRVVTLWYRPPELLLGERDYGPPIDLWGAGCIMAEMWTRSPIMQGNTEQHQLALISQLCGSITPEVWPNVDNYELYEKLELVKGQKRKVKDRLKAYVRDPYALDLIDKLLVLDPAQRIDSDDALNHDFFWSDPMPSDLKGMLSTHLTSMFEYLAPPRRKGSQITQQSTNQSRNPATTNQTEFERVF
Chain of Serine/threonine-protein kinase TBK1 (Q9UHD2 whole entry): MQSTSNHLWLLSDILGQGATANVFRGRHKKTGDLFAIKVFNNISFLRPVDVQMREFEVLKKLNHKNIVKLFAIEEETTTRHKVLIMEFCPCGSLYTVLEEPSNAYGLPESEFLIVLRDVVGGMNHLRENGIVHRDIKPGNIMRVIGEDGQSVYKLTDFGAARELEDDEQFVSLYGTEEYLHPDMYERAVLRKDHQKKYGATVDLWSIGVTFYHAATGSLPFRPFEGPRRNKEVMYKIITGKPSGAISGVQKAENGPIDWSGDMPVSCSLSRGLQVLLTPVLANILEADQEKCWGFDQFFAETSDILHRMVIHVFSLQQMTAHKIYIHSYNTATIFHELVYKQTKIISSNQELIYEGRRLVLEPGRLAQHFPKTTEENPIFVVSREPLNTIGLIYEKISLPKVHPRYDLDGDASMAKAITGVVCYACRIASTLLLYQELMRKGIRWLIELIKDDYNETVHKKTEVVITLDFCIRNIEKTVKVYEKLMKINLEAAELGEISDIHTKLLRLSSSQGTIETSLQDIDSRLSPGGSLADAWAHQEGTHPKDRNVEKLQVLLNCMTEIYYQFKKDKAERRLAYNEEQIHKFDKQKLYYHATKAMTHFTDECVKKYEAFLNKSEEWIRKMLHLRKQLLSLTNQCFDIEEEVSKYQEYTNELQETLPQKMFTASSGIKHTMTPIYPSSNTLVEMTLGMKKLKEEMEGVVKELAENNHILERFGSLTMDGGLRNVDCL
Chain of Platelet-derived growth factor receptor alpha (P16234 whole entry): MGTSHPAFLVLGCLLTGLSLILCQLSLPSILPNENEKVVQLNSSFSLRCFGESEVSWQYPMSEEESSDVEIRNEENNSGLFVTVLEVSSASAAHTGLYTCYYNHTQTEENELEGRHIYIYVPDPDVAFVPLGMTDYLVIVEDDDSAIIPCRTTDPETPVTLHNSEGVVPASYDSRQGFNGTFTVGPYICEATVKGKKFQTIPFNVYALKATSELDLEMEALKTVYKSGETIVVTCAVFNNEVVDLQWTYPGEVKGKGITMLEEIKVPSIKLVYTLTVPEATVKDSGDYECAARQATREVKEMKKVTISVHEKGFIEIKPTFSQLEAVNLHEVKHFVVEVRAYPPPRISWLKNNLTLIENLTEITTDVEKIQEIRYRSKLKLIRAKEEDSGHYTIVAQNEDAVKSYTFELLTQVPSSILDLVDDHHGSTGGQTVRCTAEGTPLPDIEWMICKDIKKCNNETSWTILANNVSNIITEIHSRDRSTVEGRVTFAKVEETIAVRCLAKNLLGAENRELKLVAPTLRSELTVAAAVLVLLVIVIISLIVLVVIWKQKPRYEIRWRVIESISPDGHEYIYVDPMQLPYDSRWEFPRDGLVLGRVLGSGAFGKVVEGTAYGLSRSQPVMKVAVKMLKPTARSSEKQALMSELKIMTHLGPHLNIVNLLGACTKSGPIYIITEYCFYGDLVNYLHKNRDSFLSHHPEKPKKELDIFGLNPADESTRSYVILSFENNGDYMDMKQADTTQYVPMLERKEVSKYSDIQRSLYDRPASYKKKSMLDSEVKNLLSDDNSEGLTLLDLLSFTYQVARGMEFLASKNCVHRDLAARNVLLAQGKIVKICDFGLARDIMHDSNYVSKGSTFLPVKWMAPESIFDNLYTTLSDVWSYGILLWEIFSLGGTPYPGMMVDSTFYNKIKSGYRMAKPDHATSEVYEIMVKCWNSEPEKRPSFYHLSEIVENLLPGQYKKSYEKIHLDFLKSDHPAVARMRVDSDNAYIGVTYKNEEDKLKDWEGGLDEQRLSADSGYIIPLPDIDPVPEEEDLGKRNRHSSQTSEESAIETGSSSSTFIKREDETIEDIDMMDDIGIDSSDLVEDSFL
Chain of Glycogen synthase kinase-3 alpha (P49840 whole entry): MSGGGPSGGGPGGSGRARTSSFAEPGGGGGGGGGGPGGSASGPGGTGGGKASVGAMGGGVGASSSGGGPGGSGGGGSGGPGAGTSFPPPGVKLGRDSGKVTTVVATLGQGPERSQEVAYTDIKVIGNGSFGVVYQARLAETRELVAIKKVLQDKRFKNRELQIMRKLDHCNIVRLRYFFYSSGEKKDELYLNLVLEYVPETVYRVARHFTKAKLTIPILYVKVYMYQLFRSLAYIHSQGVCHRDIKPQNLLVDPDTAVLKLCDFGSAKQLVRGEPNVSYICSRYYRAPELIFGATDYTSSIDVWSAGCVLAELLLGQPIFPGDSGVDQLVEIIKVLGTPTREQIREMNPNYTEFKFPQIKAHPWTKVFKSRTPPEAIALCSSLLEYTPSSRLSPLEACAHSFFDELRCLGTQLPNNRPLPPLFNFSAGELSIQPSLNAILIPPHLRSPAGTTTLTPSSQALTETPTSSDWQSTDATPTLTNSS
Chain of Serine/threonine-protein kinase PAK 4 (O96013 whole entry): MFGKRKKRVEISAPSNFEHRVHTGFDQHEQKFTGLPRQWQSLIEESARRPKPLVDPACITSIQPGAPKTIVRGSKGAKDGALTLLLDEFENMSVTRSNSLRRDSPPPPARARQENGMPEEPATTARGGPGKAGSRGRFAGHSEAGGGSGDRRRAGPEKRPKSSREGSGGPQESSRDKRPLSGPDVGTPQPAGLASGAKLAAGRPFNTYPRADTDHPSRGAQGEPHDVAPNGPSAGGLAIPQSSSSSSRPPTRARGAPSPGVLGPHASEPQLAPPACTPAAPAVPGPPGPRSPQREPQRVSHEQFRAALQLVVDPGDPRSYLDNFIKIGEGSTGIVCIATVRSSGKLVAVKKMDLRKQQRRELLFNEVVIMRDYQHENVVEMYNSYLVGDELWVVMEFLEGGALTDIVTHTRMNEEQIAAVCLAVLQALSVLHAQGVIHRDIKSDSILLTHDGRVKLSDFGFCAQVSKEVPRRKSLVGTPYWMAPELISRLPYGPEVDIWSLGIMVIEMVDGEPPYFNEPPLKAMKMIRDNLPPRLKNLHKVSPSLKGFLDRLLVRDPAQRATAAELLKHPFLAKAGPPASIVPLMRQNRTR
Chain of Death-associated protein kinase 3 (O43293 whole entry): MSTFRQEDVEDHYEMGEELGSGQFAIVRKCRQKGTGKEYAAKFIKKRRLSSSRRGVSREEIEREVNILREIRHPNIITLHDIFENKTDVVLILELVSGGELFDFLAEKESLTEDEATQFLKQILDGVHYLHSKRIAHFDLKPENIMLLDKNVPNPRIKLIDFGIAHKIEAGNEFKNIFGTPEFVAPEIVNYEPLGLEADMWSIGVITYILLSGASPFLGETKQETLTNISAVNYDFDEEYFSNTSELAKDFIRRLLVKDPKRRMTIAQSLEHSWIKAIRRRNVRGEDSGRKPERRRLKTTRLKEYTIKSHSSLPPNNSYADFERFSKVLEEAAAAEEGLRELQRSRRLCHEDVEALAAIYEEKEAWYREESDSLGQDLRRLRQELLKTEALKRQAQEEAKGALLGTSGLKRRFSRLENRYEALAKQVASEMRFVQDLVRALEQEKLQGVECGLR

Ki [1]: > 3.98 µM (inactive)
Ki [2]: 0.631 µM (active)
Ki [3]: 0.631 µM (active)
Ki [4]: 2.51 µM (active)
Ki (Activated CDC42 kinase 1): 0.631 µM (active)
Ki [5]: 0.158 µM (active)
Ki [6]: 0.631 µM (active)
Ki [7]: 0.1 µM (active)
Ki [8]: 0.398 µM (active)
Ki [9]: 1.58 µM (active)
Ki [10]: 1.58 µM (active)
Ki [11]: 0.794 µM (active)
Ki [12]: 0.794 µM (active)
Ki [13]: 1 µM (active)
Ki [14]: 2 µM (active)
Ki [15]: 0.1 µM (active)
Ki [16]: 0.2 µM (active)
Ki [17]: 0.398 µM (active)
Ki (LIM domain kinase 1): 0.501 µM (active)
Ki (Activin receptor type-1): > 3.98 µM (inactive)
Ki [18]: 0.631 µM (active)
Ki [19]: 0.0794 µM (active)
Ki [20]: 0.316 µM (active)
Ki [21]: 0.316 µM (active)
Ki [22]: > 5.01 µM (inactive)
Ki [23]: 0.794 µM (active)
Ki [24]: > 3.98 µM (inactive)
Ki [25]: 0.398 µM (active)
Ki [26]: 1.58 µM (active)
Ki [27]: 0.794 µM (active)
Ki [28]: 0.251 µM (active)
Ki [29]: 0.631 µM (active)
Ki [30]: 0.0398 µM (active)
Ki [31]: 0.794 µM (active)
Ki [32]: 0.398 µM (active)
Ki [33]: 0.126 µM (active)
Ki [34]: 0.398 µM (active)
Ki [35]: 0.631 µM (active)
Ki [36]: 0.0631 µM (active)
Ki [37]: 0.251 µM (active)
Ki [38]: > 3.16 µM (inactive)
Ki [39]: 0.398 µM (active)
Ki [41]: 0.316 µM (active)
Ki [42]: 1 µM (active)
Ki (Focal adhesion kinase 1): 3.98 µM (active)
Ki [43]: 0.0794 µM (active)
Ki [44]: 0.501 µM (active)
Ki [45]: 1 µM (active)
Ki (Aurora kinase A): 0.158 µM (active)
Ki [46]: 0.158 µM (active)
Ki [47]: 0.126 µM (active)
Ki [48]: 0.501 µM (active)
Ki (Aurora kinase B): 0.501 µM (active)
Ki [49]: 0.1 µM (active)
Ki [50]: 2.51 µM (active)
Ki [51]: > 2.51 µM (inactive)
Ki [52]: 0.0501 µM (active)
Ki [53]: 0.501 µM (active)
SMILES: CCC(=O)Nc1ccc(C(=O)N2CCNCC2)c(O)c1
Ki [40]: 0.794 µM (active)
